Laboratory results: ChEMBL document CHEMBL1201862, “PubChem BioAssay data set” (2004)
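Cultured in 96-well plates, cells were exposed to test compound for 48 hours across five concentrations. Here, GI50 denotes the concentration required for 50% inhibition of growth.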 Activity calls are given as the source filed them. Cut-off read from the data, not from the text of the source: active = GI50 up to about 1.1 µM and inactive = higher.

Assays:
Test in all cases: NCI-60 cell line screen, 48 h
MDA-MB-231 = tested on: MDA-MB-231
RXF 393 = tested on: RXF 393
HCT-15 = tested on: HCT-15
PC-3 = tested on: PC-3
DU-145 = tested on: DU-145
UACC-257 = tested on: UACC-257
OVCAR-5 = tested on: OVCAR-5
BT-549 = tested on: BT-549
SF-539 = tested on: SF-539
M14 = tested on: M14
SNB-19 = tested on: SNB-19
IGROV-1 = tested on: IGROV-1
OVCAR-4 = tested on: OVCAR-4
T47D = tested on: T47D
OVCAR-8 = tested on: OVCAR-8
SF-268 = tested on: SF-268
CAKI-1 = tested on: CAKI-1
TK-10 = tested on: TK-10
CCRF-CEM = tested on: CCRF-CEM
UACC-62 = tested on: UACC-62
OVCAR-3 = tested on: OVCAR-3
NCI/ADR-RES = tested on: NCI/ADR-RES
SK-MEL-5 = tested on: SK-MEL-5
SK-MEL-28 = tested on: SK-MEL-28
UO-31 = tested on: UO-31
Malme-3M = tested on: Malme-3M
MCF7 = tested on: MCF7
NCI-H23 = tested on: NCI-H23
SW-620 = tested on: SW-620
A549 = tested on: A549
MDA-N = tested on: MDA-N
KM12 = tested on: KM12
U-251 = tested on: U-251
NCI-H226 = tested on: NCI-H226
A498 = tested on: A498
RPMI-8226 = tested on: RPMI-8226
SF-295 = tested on: SF-295
COLO 205 = tested on: COLO 205
HCC 2998 = tested on: HCC 2998
SK-MEL-2 = tested on: SK-MEL-2
HOP-92 = tested on: HOP-92
HCT-116 = tested on: HCT-116
MOLT-4 = tested on: MOLT-4
SK-OV-3 = tested on: SK-OV-3
ACHN = tested on: ACHN
HOP-62 = tested on: HOP-62
SN12C = tested on: SN12C
MDA-MB-435 = tested on: MDA-MB-435
LOX IMVI = tested on: LOX IMVI
EKVX = tested on: EKVX
Hs-578T = tested on: Hs-578T
SR = tested on: SR
786-0 = tested on: 786-0
K562 = tested on: K562
NCI-H522 = tested on: NCI-H522
NCI-H460 = tested on: NCI-H460
HT-29 = tested on: HT-29
HL-60 = tested on: HL-60
SNB-75 = tested on: SNB-75

Measured: GI50

Cc1cn(C2CC(O)C(Cn3nncc3Cn3ncc(=O)[nH]c3=O)O2)c(=O)[nH]c1=O (stereo unspecified)
inactive: MDA-MB-231 > 100 µM | RXF 393 > 100 µM | PC-3 > 100 µM | DU-145 > 100 µM | UACC-257 > 100 µM | OVCAR-5 > 100 µM | BT-549 > 100 µM | SF-539 > 100 µM | M14 > 100 µM | SNB-19 > 100 µM | IGROV-1 > 100 µM | OVCAR-4 > 100 µM | T47D > 100 µM | OVCAR-8 > 100 µM | SF-268 > 100 µM | CAKI-1 > 100 µM | TK-10 > 100 µM | CCRF-CEM > 100 µM | UACC-62 > 100 µM | OVCAR-3 > 100 µM | NCI/ADR-RES > 100 µM | SK-MEL-5 > 100 µM | SK-MEL-28 > 100 µM | UO-31 > 100 µM | Malme-3M > 100 µM | MCF7 > 100 µM | NCI-H23 > 100 µM | SW-620 > 100 µM | A549 > 100 µM | MDA-N > 100 µM | KM12 > 100 µM | U-251 > 100 µM | NCI-H226 > 100 µM | A498 > 100 µM | RPMI-8226 > 100 µM | SF-295 > 100 µM | COLO 205 > 100 µM | HCC 2998 > 100 µM | SK-MEL-2 > 100 µM | HOP-92 > 100 µM | HCT-116 > 100 µM | MOLT-4 > 100 µM | SK-OV-3 77.1 µM | ACHN > 100 µM | HOP-62 > 100 µM | SN12C > 100 µM | MDA-MB-435 > 100 µM | LOX IMVI > 100 µM | EKVX > 100 µM | Hs-578T > 100 µM
> 100 µM: HCT-15

O=S(=O)(c1ccccc1)n1c2cc3cccnc3nc2c2cccnc21
71.3 µM: HCT-15
inactive: MDA-MB-231 > 100 µM | RXF 393 27.6 µM | PC-3 97.9 µM | UACC-257 54.6 µM | OVCAR-5 > 100 µM | BT-549 > 100 µM | M14 > 100 µM | SNB-19 40.1 µM | IGROV-1 79.1 µM | OVCAR-4 72.3 µM | SR 10.9 µM | 786-0 71.8 µM | OVCAR-8 74.1 µM | SF-268 56.8 µM | K562 17.3 µM | CAKI-1 > 100 µM | TK-10 > 100 µM | CCRF-CEM 22.4 µM | OVCAR-3 38.5 µM | NCI/ADR-RES > 100 µM | SK-MEL-5 54.3 µM | SK-MEL-28 > 100 µM | UO-31 > 100 µM | NCI-H522 33.3 µM | Malme-3M > 100 µM | MCF7 46 µM | NCI-H23 44.9 µM | SW-620 44.7 µM | A549 > 100 µM | NCI-H460 36.9 µM | MDA-N 38.2 µM | KM12 > 100 µM | U-251 40.5 µM | NCI-H226 > 100 µM | HT-29 60.4 µM | A498 > 100 µM | RPMI-8226 18.5 µM | SF-295 49.8 µM | COLO 205 72.9 µM | HCC 2998 > 100 µM | SK-MEL-2 > 100 µM | HOP-92 21.1 µM | HL-60 17.9 µM | HCT-116 82.2 µM | MOLT-4 45.3 µM | SK-OV-3 > 100 µM | ACHN 62.7 µM | HOP-62 60 µM | SNB-75 28.4 µM | SN12C 81.3 µM | MDA-MB-435 25.5 µM | LOX IMVI 42.5 µM | EKVX > 100 µM | Hs-578T > 100 µM
